Data reported in patent publication US10405547B2, “Substituted cyclic amides as herbicides” (FMC Corporation, priority 2015, dated 2019).

Assays:
Type in all cases: in vivo
[1] = tested on: foxtail, giant (Setaria faberii); assay: Test A preemergence, giant foxtail; conditions: 0 to 100 scale (0 no effect, 100 complete control)
Summary of the method: (§1)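 Visual injury scores (0 no effect to 100 complete control) taken about 10 days after treatment, relative to untreated plants. Treatments were directed soil spray at planting for preemergence, or foliar application to one- to two-leaf plants (2-10 cm) for postemergence, with surfactant-containing formulations in loam–sand pots.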

[2] = tested on: barnyardgrass (Echinochloa crus-galli); assay: Test B flooded paddy test, barnyardgrass; conditions: 250 g ai/ha, applied to paddy water, visual rating after 13 to 15 days, scale 0 (no effect) to 100 (complete control)
Summary of the method: (§2)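 Pots were flooded to 3 cm above the soil surface at treatment, compound applied directly to the paddy water, and that depth held throughout. Plants were kept in a greenhouse for 13 to 15 days, then visually rated against untreated controls.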

[3] = tested on: ragweed (common ragweed, Ambrosia elatior); assay: Test A preemergence, ragweed; conditions: 0 to 100 scale (0 no effect, 100 complete control)
Summary of the method: as §1

[4] = tested on: barnyardgrass (Echinochloa crus-galli); assay: Test A preemergence, barnyardgrass; conditions: 0 to 100 scale (0 no effect, 100 complete control)
Summary of the method: as §1

[5] = tested on: foxtail, giant (Setaria faberii); assay: Test A postemergence, giant foxtail; conditions: visual injury, 0 to 100 scale (0 no effect, 100 complete control), approximately 10 days
Summary of the method: as §1

[6] = tested on: sedge, umbrella (small-flower umbrella sedge, Cyperus difformis); assay: Test B flooded paddy test, umbrella sedge; conditions: 250 g ai/ha, applied to paddy water, visual rating after 13 to 15 days, scale 0 (no effect) to 100 (complete control)
Summary of the method: as §2

[7] = tested on: blackgrass (Alopecurus myosuroides); assay: Test A postemergence, blackgrass; conditions: visual injury, 0 to 100 scale (0 no effect, 100 complete control), approximately 10 days
Summary of the method: as §1

corn (Zea mays) = assay: Test A postemergence, corn; conditions: visual injury, 0 to 100 scale (0 no effect, 100 complete control), approximately 10 days
Summary of the method: as §1

[8] = tested on: pigweed (Amaranthus retroflexus); assay: Test A preemergence, pigweed; conditions: 0 to 100 scale (0 no effect, 100 complete control)
Summary of the method: as §1

[9] = tested on: galium (catchweed bedstraw, Galium aparine); assay: Test A postemergence, galium; conditions: visual injury, 0 to 100 scale (0 no effect, 100 complete control), approximately 10 days
Summary of the method: as §1

rice (Oryza sativa) = assay: Test B flooded paddy test, rice; conditions: 250 g ai/ha, applied to paddy water, visual rating after 13 to 15 days, scale 0 (no effect) to 100 (complete control)
Summary of the method: as §2

kochia (Kochia scoparia) [10] = assay: Test A preemergence, kochia; conditions: 0 to 100 scale (0 no effect, 100 complete control)
Summary of the method: as §1

[11] = tested on: ryegrass, Italian (Lolium multiflorum); assay: Test A preemergence, Italian ryegrass; conditions: 0 to 100 scale (0 no effect, 100 complete control)
Summary of the method: as §1

kochia (Kochia scoparia) [12] = assay: Test A postemergence, kochia; conditions: visual injury, 0 to 100 scale (0 no effect, 100 complete control), approximately 10 days
Summary of the method: as §1

[13] = tested on: wheat (Triticum aestivum); assay: Test A postemergence, wheat; conditions: visual injury, 0 to 100 scale (0 no effect, 100 complete control), approximately 10 days
Summary of the method: as §1

[14] = tested on: ducksalad (Heteranthera limosa); assay: Test B flooded paddy test, ducksalad; conditions: 250 g ai/ha, applied to paddy water, visual rating after 13 to 15 days, scale 0 (no effect) to 100 (complete control)
Summary of the method: as §2

[15] = tested on: ragweed (common ragweed, Ambrosia elatior); assay: Test A postemergence, ragweed; conditions: visual injury, 0 to 100 scale (0 no effect, 100 complete control), approximately 10 days
Summary of the method: as §1

[16] = tested on: barnyardgrass (Echinochloa crus-galli); assay: Test A postemergence, barnyardgrass; conditions: visual injury, 0 to 100 scale (0 no effect, 100 complete control), approximately 10 days
Summary of the method: as §1

[17] = tested on: pigweed (Amaranthus retroflexus); assay: Test A postemergence, pigweed; conditions: visual injury, 0 to 100 scale (0 no effect, 100 complete control), approximately 10 days
Summary of the method: as §1

[18] = tested on: ryegrass, Italian (Lolium multiflorum); assay: Test A postemergence, Italian ryegrass; conditions: visual injury, 0 to 100 scale (0 no effect, 100 complete control), approximately 10 days
Summary of the method: as §1

| Compound | Plant response rating, Foxtail, Giant ([1]; 125 g ai/ha) | Plant response rating, Foxtail, Giant ([1]; 500 g ai/ha) | Plant response rating, Barnyardgrass (Flood) [2] | Plant response rating, Ragweed ([3]; 125 g ai/ha) | Plant response rating, Ragweed ([3]; 500 g ai/ha) | Plant response rating, Barnyardgrass ([4]; 125 g ai/ha) | Plant response rating, Barnyardgrass ([4]; 500 g ai/ha) | Plant response rating, Foxtail, Giant ([5]; 125 g ai/ha) | Plant response rating, Foxtail, Giant ([5]; 500 g ai/ha) | Plant response rating, Sedge, Umbrella (Flood) [6] | Plant response rating, Blackgrass ([7]; 125 g ai/ha) | Plant response rating, Blackgrass ([7]; 500 g ai/ha) | Plant response rating, Corn (corn (Zea mays); 125 g ai/ha) | Plant response rating, Corn (corn (Zea mays); 500 g ai/ha) | Plant response rating, Pigweed ([8]; 125 g ai/ha) | Plant response rating, Pigweed ([8]; 500 g ai/ha) | Plant response rating, Galium ([9]; 125 g ai/ha) | Plant response rating, Galium ([9]; 500 g ai/ha) | Plant response rating, Rice (Flood) (rice (Oryza sativa)) | Plant response rating, Kochia (kochia (Kochia scoparia) [10]; 125 g ai/ha) | further results |
| --- | --- | --- | --- | --- | --- | --- | --- | --- | --- | --- | --- | --- | --- | --- | --- | --- | --- | --- | --- | --- | --- |
| CON=Cc1cccc(C2CN(C)C(=O)C2C(=O)Nc2ccccc2F)c1 (stereo not drawn) [Compound 53, N-(2-fluorophenyl)-4-[3-[(methoxyimino)methyl]phenyl]-1-methyl-2-oxo-3-pyrrolidinecarboxamide] | 90 | 90 | 30 | 0 | 0 | 90 | 90 | 80 | 90 | 0 | 0 | 20 | 0 | 0 | 0 | 0 | 0 | 30 | 0 | 60 | Plant response rating, Kochia (kochia (Kochia scoparia) [10]; 500 g ai/ha): 70; Plant response rating, Ryegrass, Italian ([11]; 125 g ai/ha): 0; Plant response rating, Ryegrass, Italian ([11]; 500 g ai/ha): 0; Plant response rating, Kochia (kochia (Kochia scoparia) [12]; 125 g ai/ha): 0; Plant response rating, Kochia (kochia (Kochia scoparia) [12]; 500 g ai/ha): 0; Plant response rating, Wheat ([13]; 125 g ai/ha): 0; Plant response rating, Wheat ([13]; 500 g ai/ha): 0; Plant response rating, Ducksalad (Flood) [14]: 70; Plant response rating, Ragweed ([15]; 125 g ai/ha): 0; Plant response rating, Ragweed ([15]; 500 g ai/ha): 0; Plant response rating, Barnyardgrass ([16]; 125 g ai/ha): 70; Plant response rating, Barnyardgrass ([16]; 500 g ai/ha): 90; Plant response rating, Pigweed ([17]; 125 g ai/ha): 0; Plant response rating, Pigweed ([17]; 500 g ai/ha): 0; Plant response rating, Ryegrass, Italian ([18]; 125 g ai/ha): 0; Plant response rating, Ryegrass, Italian ([18]; 500 g ai/ha): 0 |
| O=C1NCC(c2cccc(OCC3CC3)c2)C1C(=O)Nc1cccc(F)c1F (stereo not drawn) [Compound 12] | 90 | 90 | 0 | 0 | 0 | 90 | 90 | 70 | 90 | 0 | 0 | 60 | 0 | 60 | 0 | 30 | 0 | 50 | 0 | 0 | Plant response rating, Kochia (kochia (Kochia scoparia) [10]; 500 g ai/ha): 40; Plant response rating, Ryegrass, Italian ([11]; 125 g ai/ha): 0; Plant response rating, Ryegrass, Italian ([11]; 500 g ai/ha): 20; Plant response rating, Kochia (kochia (Kochia scoparia) [12]; 125 g ai/ha): 0; Plant response rating, Kochia (kochia (Kochia scoparia) [12]; 500 g ai/ha): 20; Plant response rating, Wheat ([13]; 125 g ai/ha): 0; Plant response rating, Wheat ([13]; 500 g ai/ha): 50; Plant response rating, Ducksalad (Flood) [14]: 20; Plant response rating, Ragweed ([15]; 125 g ai/ha): 30; Plant response rating, Ragweed ([15]; 500 g ai/ha): 30; Plant response rating, Barnyardgrass ([16]; 125 g ai/ha): 70; Plant response rating, Barnyardgrass ([16]; 500 g ai/ha): 90; Plant response rating, Pigweed ([17]; 125 g ai/ha): 0; Plant response rating, Pigweed ([17]; 500 g ai/ha): 20; Plant response rating, Ryegrass, Italian ([18]; 125 g ai/ha): 20; Plant response rating, Ryegrass, Italian ([18]; 500 g ai/ha): 50 |
